# Test results from the supplement of paper PMC4862054.
# What was measured:
# BT-474 [1] = assay: normalised viability (% of control), CellTiter-Blue; higher = more viable cells (about 100 = DMSO control); details: 10 nM; incubation time: 72 h
# Method: (§1)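 DSRT, CellTiter-Blue viability, 72 h incubation. Signal is normalised to DMSO and benzethonium chloride controls. Value is the normalised response at dose 3.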
# DU-4475 [2] = assay: as above; details: 1 nM; incubation time: 72 h
# Method: as §1
# HCC1599 [3] = assay: as above; details: 10 nM; incubation time: 72 h
# Method: as §1
# MDA-MB-453 [4] = assay: as above; details: 1 nM; incubation time: 72 h
# Method: as §1
# MFM-223 [5] = assay: as above; details: 10 nM; incubation time: 72 h
# Method: as §1
# SK-BR-3 [6] = assay: as above; details: 10 nM; incubation time: 72 h
# Method: as §1
# BT-474 [7] = assay: normalised viability (% of control), CellTiter-Blue; higher = more viable cells (about 100 = DMSO control); details: incubation time: 72 h
# Method in brief: (§2)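 After 72 h on compound-loaded 384-well plates, breast cancer cell lines received 2.5 µl CellTiter-Blue reagent for 2 h at 37 °C. Fluorescence at 560/590 nm was scaled per plate so that vehicle was 100 and a positive kill control was 0. The value stands for normalised viability at a single listed concentration of the series.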
# BT-549 = assay: as above; details: incubation time: 72 h
# Method in brief: as §2
# CAL-120 = assay: as above; details: incubation time: 72 h
# Method in brief: as §2
# CAL-148 = assay: as above; details: incubation time: 72 h
# Method in brief: as §2
# CAL-51 = assay: as above; details: incubation time: 72 h
# Method in brief: as §2
# CAL-85-1 = assay: as above; details: incubation time: 72 h
# Method in brief: as §2
# DU-4475 [8] = assay: as above; details: incubation time: 72 h
# Method in brief: as §2
# HCC1143 = assay: as above; details: incubation time: 72 h
# Method in brief: as §2
# HCC1599 [9] = assay: as above; details: incubation time: 72 h
# Method in brief: as §2
# HCC1937 = assay: as above; details: incubation time: 72 h
# Method in brief: as §2
# HDQ-P1 = assay: as above; details: incubation time: 72 h
# Method in brief: as §2
# Hs578T [10] = assay: as above; details: incubation time: 72 h
# Method in brief: as §2
# MDA-MB-231 = assay: as above; details: incubation time: 72 h
# Method in brief: as §2
# MDA-MB-436 = assay: as above; details: incubation time: 72 h
# Method in brief: as §2
# MDA-MB-453 [11] = assay: as above; details: incubation time: 72 h
# Method in brief: as §2
# MDA-MB-468 = assay: as above; details: incubation time: 72 h
# Method in brief: as §2
# MFM-223 [12] = assay: as above; details: incubation time: 72 h
# Method in brief: as §2
# SK-BR-3 [13] = assay: as above; details: incubation time: 72 h
# Method in brief: as §2
# Hs578T [14] = assay: drug sensitivity score (DSS), CellTox Green (DSS (AUC-based score)); higher = stronger drug effect (viability inhibition or cytotoxicity); extreme values may be limits of the assay; details: incubation time: 72 h
# Method in brief: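 After 72 h of incubation in 384-well plates with compound at 5 concentrations (10-fold steps, 10,000-fold range set per compound), breast cancer cell lines seeded in 20 µl suspension were read first for CellTox Green fluorescence at 485/520 nm. CellTiter-Glo luminescence was measured next, after 10 min at room temperature. Normalisation on each plate used 0.1 % DMSO and a positive kill control, and the drug sensitivity score was computed from the area under the fitted dose-response curve.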
smiles,measurement,setting,value
Nc1nc(Cl)nc2c1ncn2[C@H]1C[C@H](O)[C@@H](CO)O1 [Cladribine],normalised viability,BT-474 [1],118%
same,normalised viability,DU-4475 [2],108%
same,normalised viability,HCC1599 [3],105%
same,normalised viability,MDA-MB-453 [4],112%
same,normalised viability,MFM-223 [5],85%
same,normalised viability,SK-BR-3 [6],95%
same,normalised viability,BT-474 [7]; 1 nM,112%
same,normalised viability,BT-474 [7]; 100 nM,102%
same,normalised viability,BT-474 [7]; 1000 nM,103%
same,normalised viability,BT-549; 1 nM,82.5%
same,normalised viability,BT-549; 100 nM,86.4%
same,normalised viability,BT-549; 1000 nM,45.8%
same,normalised viability,CAL-120; 1 nM,87.2%
same,normalised viability,CAL-120; 100 nM,79.7%
same,normalised viability,CAL-120; 1000 nM,48.1%
same,normalised viability,CAL-148; 0.3 nM,91.9%
same,normalised viability,CAL-148; 3 nM,109%
same,normalised viability,CAL-148; 10 nM,93%
same,normalised viability,CAL-51; 0.3 nM,119%
same,normalised viability,CAL-51; 3 nM,116%
same,normalised viability,CAL-51; 10 nM,114%
same,normalised viability,CAL-85-1; 0.3 nM,102%
same,normalised viability,CAL-85-1; 3 nM,101%
same,normalised viability,CAL-85-1; 10 nM,105%
same,normalised viability,DU-4475 [8]; 0.3 nM,106%
same,normalised viability,DU-4475 [8]; 3 nM,104%
same,normalised viability,DU-4475 [8]; 10 nM,102%
same,normalised viability,HCC1143; 1 nM,91.9%
same,normalised viability,HCC1143; 100 nM,87.6%
same,normalised viability,HCC1143; 1000 nM,72.2%
same,normalised viability,HCC1599 [9]; 1 nM,97.8%
same,normalised viability,HCC1599 [9]; 100 nM,83%
same,normalised viability,HCC1599 [9]; 1000 nM,91.7%
same,normalised viability,HCC1937; 1 nM,91.8%
same,normalised viability,HCC1937; 100 nM,56.8%
same,normalised viability,HCC1937; 1000 nM,43.4%
same,normalised viability,HDQ-P1; 0.3 nM,113%
same,normalised viability,HDQ-P1; 3 nM,101%
same,normalised viability,HDQ-P1; 10 nM,109%
same,normalised viability,Hs578T [10]; 1 nM,111%
same,normalised viability,Hs578T [10]; 100 nM,104%
same,normalised viability,Hs578T [10]; 1000 nM,105%
same,normalised viability,MDA-MB-231; 1 nM,101%
same,normalised viability,MDA-MB-231; 100 nM,67%
same,normalised viability,MDA-MB-231; 1000 nM,71.9%
same,normalised viability,MDA-MB-436; 1 nM,101%
same,normalised viability,MDA-MB-436; 100 nM,90%
same,normalised viability,MDA-MB-436; 1000 nM,65.8%
same,normalised viability,MDA-MB-453 [11]; 0.3 nM,126%
same,normalised viability,MDA-MB-453 [11]; 3 nM,97.4%
same,normalised viability,MDA-MB-453 [11]; 10 nM,89.7%
same,normalised viability,MDA-MB-468; 1 nM,99.6%
same,normalised viability,MDA-MB-468; 100 nM,94.4%
same,normalised viability,MDA-MB-468; 1000 nM,82.8%
same,normalised viability,MFM-223 [12]; 1 nM,86.2%
same,normalised viability,MFM-223 [12]; 100 nM,86.7%
same,normalised viability,MFM-223 [12]; 1000 nM,90%
same,normalised viability,SK-BR-3 [13]; 1 nM,92.6%
same,normalised viability,SK-BR-3 [13]; 100 nM,99.7%
same,normalised viability,SK-BR-3 [13]; 1000 nM,42.4%
same,drug sensitivity score,Hs578T [14],0
